# “And” between values parts separate entries of the source, which are not always exact repeats. Equal entries are not always repeated.
# Columns and labels:
# 786-0 = experiment: NCI-60 one-dose SRB screen (Renal Cancer); format: cell-based; details: Homo sapiens, single dose 10 µM, 48 h, read-out: Growth inhibition percent (GI %)
# Procedure: (§1) The National Cancer Institute (NCI) Developmental Therapeutic Program (www.dtp.nci.nih.gov) selected the 20 novel synthesized compounds 4a-e, 5a-e, 6a-c, 9a-e, 10 and 11 to test for their anticancer activity at a single dose of 10 µM using SRB assay. […] Supplementary Data S3; Table S1 presents the detailed screening results of the most promising compounds. The preliminary screening’s detailed results for the remaining compounds are elucidated in the (Supplementary Data S3; Table S2).
# (§2) The guidelines of the Drug Evaluation Branch’s protocol at the NCI in Bethesda served as the basis for the in vitro anticancer screening assays. at one dose 10 µM against a panel of 60 cancer cell lines. The human tumor cell lines used belonged to nine panels: leukemia, melanoma, lung, colon, CNS, ovarian, renal, prostate and breast cancers using the sulforhodamine B (SRB) assay in a 48 h drug exposure protocol.
# RXF 393 = experiment: NCI-60 one-dose SRB screen (Renal Cancer); format: cell-based; details: Homo sapiens, single dose 10 µM, 48 h, read-out: Growth inhibition percent (GI %)
# Procedure: as §1, §2
# hCA XII = hCA XII (Homo sapiens, UniProt O43570); experiment: CA inhibitory activity, spectrophotometric p-NPA assay; format: biochemical; details: p-NPA substrate, pH 7.5, 25 °C, triplicate; read-out: IC50 (µM) ± SD hCA XII
# Sequence of hCA XII (O43570 25-354): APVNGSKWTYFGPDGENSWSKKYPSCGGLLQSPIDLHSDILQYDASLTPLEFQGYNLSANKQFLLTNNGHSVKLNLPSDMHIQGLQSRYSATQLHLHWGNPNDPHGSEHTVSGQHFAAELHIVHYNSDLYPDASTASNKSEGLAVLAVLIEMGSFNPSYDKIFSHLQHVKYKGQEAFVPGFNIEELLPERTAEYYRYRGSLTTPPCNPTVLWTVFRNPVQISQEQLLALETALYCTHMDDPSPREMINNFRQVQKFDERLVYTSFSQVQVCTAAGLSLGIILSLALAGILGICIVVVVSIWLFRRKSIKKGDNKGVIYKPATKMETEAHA
# NCI/ADR-RES = experiment: NCI-60 one-dose SRB screen (Ovarian cancer); format: cell-based; details: Homo sapiens, single dose 10 µM, 48 h, read-out: Growth inhibition percent (GI %)
# Procedure: as §1, §2
# OVCAR-4 = experiment: NCI-60 one-dose SRB screen (Ovarian cancer); format: cell-based; details: Homo sapiens, single dose 10 µM, 48 h, read-out: Growth inhibition percent (GI %)
# Procedure: as §1, §2
# OVCAR-5 = experiment: NCI-60 one-dose SRB screen (Ovarian cancer); format: cell-based; details: Homo sapiens, single dose 10 µM, 48 h, read-out: Growth inhibition percent (GI %)
# Procedure: as §1, §2
# IGROV1 = experiment: NCI-60 one-dose SRB screen (Ovarian cancer); format: cell-based; details: Homo sapiens, IGROV-1, single dose 10 µM, 48 h, read-out: Growth inhibition percent (GI %)
# Procedure: as §1, §2
# OVCAR-8 = experiment: NCI-60 one-dose SRB screen (Ovarian cancer); format: cell-based; details: Homo sapiens, single dose 10 µM, 48 h, read-out: Growth inhibition percent (GI %)
# Procedure: as §1, §2
# SK-OV-3 = experiment: NCI-60 one-dose SRB screen (Ovarian cancer); format: cell-based; details: Homo sapiens, single dose 10 µM, 48 h, read-out: Growth inhibition percent (GI %)
# Procedure: as §1, §2
# OVCAR-3 = experiment: NCI-60 one-dose SRB screen (Ovarian cancer); format: cell-based; details: Homo sapiens, single dose 10 µM, 48 h, read-out: Growth inhibition percent (GI %)
# Procedure: as §1, §2
# PC-3 = experiment: NCI-60 one-dose SRB screen (Prostate Cancer); format: cell-based; details: Homo sapiens, single dose 10 µM, 48 h, read-out: Growth inhibition percent (GI %)
# Procedure: as §1, §2
# DU-145 = experiment: NCI-60 one-dose SRB screen (Prostate Cancer); format: cell-based; details: Homo sapiens, single dose 10 µM, 48 h, read-out: Growth inhibition percent (GI %)
# Procedure: as §1, §2
# EKVX = experiment: NCI-60 one-dose SRB screen (Non-Small Cell Lung Cancer); format: cell-based; details: Homo sapiens, single dose 10 µM, 48 h, read-out: Growth inhibition percent (GI %)
# Procedure: as §1, §2
# A549/ATCC = experiment: as above; format: cell-based; details: Homo sapiens, single dose 10 µM, 48 h, read-out: Growth inhibition percent (GI %)
# Procedure: as §1, §2
# HOP-92 = experiment: as above; format: cell-based; details: Homo sapiens, single dose 10 µM, 48 h, read-out: Growth inhibition percent (GI %)
# Procedure: as §1, §2
# NCI-H226 = experiment: as above; format: cell-based; details: Homo sapiens, single dose 10 µM, 48 h, read-out: Growth inhibition percent (GI %)
# Procedure: as §1, §2
# NCI-H322M = experiment: as above; format: cell-based; details: Homo sapiens, single dose 10 µM, 48 h, read-out: Growth inhibition percent (GI %)
# Procedure: as §1, §2
# HOP-62 = experiment: as above; format: cell-based; details: Homo sapiens, single dose 10 µM, 48 h, read-out: Growth inhibition percent (GI %)
# Procedure: as §1, §2
# NCI-H522 = experiment: as above; format: cell-based; details: Homo sapiens, single dose 10 µM, 48 h, read-out: Growth inhibition percent (GI %)
# Procedure: as §1, §2
# NCI-H23 = experiment: as above; format: cell-based; details: Homo sapiens, single dose 10 µM, 48 h, read-out: Growth inhibition percent (GI %)
# Procedure: as §1, §2
# NCI-H460 = experiment: as above; format: cell-based; details: Homo sapiens, single dose 10 µM, 48 h, read-out: Growth inhibition percent (GI %)
# Procedure: as §1, §2
# UACC-62 = experiment: NCI-60 one-dose SRB screen (Melanoma); format: cell-based; details: Homo sapiens, single dose 10 µM, 48 h, read-out: Growth inhibition percent (GI %)
# Procedure: as §1, §2
# LOX IMVI = experiment: NCI-60 one-dose SRB screen (Melanoma); format: cell-based; details: Homo sapiens, single dose 10 µM, 48 h, read-out: Growth inhibition percent (GI %)
# Procedure: as §1, §2
# SK-MEL-28 = experiment: NCI-60 one-dose SRB screen (Melanoma); format: cell-based; details: Homo sapiens, single dose 10 µM, 48 h, read-out: Growth inhibition percent (GI %)
# Procedure: as §1, §2
# MALME-3M = experiment: NCI-60 one-dose SRB screen (Melanoma); format: cell-based; details: Homo sapiens, single dose 10 µM, 48 h, read-out: Growth inhibition percent (GI %)
# Procedure: as §1, §2
# M14 = experiment: NCI-60 one-dose SRB screen (Melanoma); format: cell-based; details: Homo sapiens, single dose 10 µM, 48 h, read-out: Growth inhibition percent (GI %)
# Procedure: as §1, §2
# MDA-MB-435 = experiment: NCI-60 one-dose SRB screen (Melanoma); format: cell-based; details: Homo sapiens, single dose 10 µM, 48 h, read-out: Growth inhibition percent (GI %)
# Procedure: as §1, §2
# SK-MEL-5 = experiment: NCI-60 one-dose SRB screen (Melanoma); format: cell-based; details: Homo sapiens, single dose 10 µM, 48 h, read-out: Growth inhibition percent (GI %)
# Procedure: as §1, §2
# UACC-257 = experiment: NCI-60 one-dose SRB screen (Melanoma); format: cell-based; details: Homo sapiens, single dose 10 µM, 48 h, read-out: Growth inhibition percent (GI %)
# Procedure: as §1, §2
# SK-MEL-2 = experiment: NCI-60 one-dose SRB screen (Melanoma); format: cell-based; details: Homo sapiens, single dose 10 µM, 48 h, read-out: Growth inhibition percent (GI %)
# Procedure: as §1, §2
structure (smiles),measurement,setting,value
"CCOC(=O)c1ccc(NC(=O)COC(=O)c2cn(-c3ccc(S(N)(=O)=O)cc3)nc2-c2ccccc2)cc1 [Compound 5a, 2-[(4-(Ethoxycarbonyl)phenyl)amino]-2-oxoethyl 3-phenyl-1-(4-sulfamoylphenyl)-1H-pyrazole-4-carboxylate]",inhibition at 10 µM,786-0,66.9%
same,inhibition at 10 µM,RXF 393,66.5%
same,IC50,hCA XII,0.39 µM and 0.395 µM
same,inhibition at 10 µM,NCI/ADR-RES,16.6%
same,inhibition at 10 µM,OVCAR-4,46.6%
same,inhibition at 10 µM,OVCAR-5,28.7%
same,inhibition at 10 µM,IGROV1,45.4%
same,inhibition at 10 µM,OVCAR-8,39.5%
same,inhibition at 10 µM,SK-OV-3,5.67%
same,inhibition at 10 µM,OVCAR-3,42.7%
same,inhibition at 10 µM,PC-3,68.1%
same,inhibition at 10 µM,DU-145,29.1%
same,inhibition at 10 µM,EKVX,49%
same,inhibition at 10 µM,A549/ATCC,60.3%
same,inhibition at 10 µM,HOP-92,38.2%
same,inhibition at 10 µM,NCI-H226,54.7%
same,inhibition at 10 µM,NCI-H322M,32.4%
same,inhibition at 10 µM,HOP-62,19.3%
same,inhibition at 10 µM,NCI-H522,76.8%
same,inhibition at 10 µM,NCI-H23,51.7%
same,inhibition at 10 µM,NCI-H460,63.5%
same,inhibition at 10 µM,UACC-62,55.2%
same,inhibition at 10 µM,LOX IMVI,69.2%
same,inhibition at 10 µM,SK-MEL-28,54.5%
same,inhibition at 10 µM,MALME-3M,79.1%
same,inhibition at 10 µM,M14,63.5%
same,inhibition at 10 µM,MDA-MB-435,45.1%
same,inhibition at 10 µM,SK-MEL-5,70.1%
same,inhibition at 10 µM,UACC-257,48%
same,inhibition at 10 µM,SK-MEL-2,50.8%

# — publication PMC12454493, “Insight on novel sulfamoylphenyl pyrazole derivatives as anticancer carbonic anhydrase inhibitors” (Molecular Diversity, 2024)
